Assays:
[1] = molecular target: recombinant human Cathepsin K (Homo sapiens (Human), UniProt P43235); test: Inhibition of Human Cathepsin K; assay type: biochemical; details: substrate Z-Gly-Pro-Arg-AMC, 60 min room temperature
Source text: Inhibition of Human Cathepsin K Materials: Microtiterplates (Optiplate-384 F were purchased from PerkinElmer (Prod. No. 6007270). The substrate Z-Gly-Pro-Arg-AMC was from Biomol (Prod.-No. P-142). L-Cysteine (Prod. No. 168149) was from Sigma. Sodium actetate was from Merck (Prod.-No. 6268.0250), EDTA was from Fluka (Prod.-No. 03680). The inhibitor E-64 was purchased from Sigma (Prod.-No. E3132). The recombinant human Cathepsin K proenzyme was purchased from Biomol (Prod. No. SE-367). All other materials were of highest grade commercially available.
The following buffers were used: Activation buffer: 32.5 mM sodium acetate, adjusted to pH 3.5 with HCl; Assay buffer: 150 mM sodium acetate, 4 mM EDTA, 20 mM L-Cysteine, adjusted to pH 5.5 with HCl,
To activate the proenzyme, 5 μl procathepsin K were mixed with 1 ul activation buffer, and incubated at room temperature for 30 min.
5 μL test compound (final concentration 0.1 nM to 100 μM) in aqua bidest (containing 4% DMSO, final DMSO concentration 1%) were mixed with 10 uL of Cathepsin K in assay buffer (final concentration 2 ng/μL) and incubated for 10 min. Then 5 μL of substrate in assay buffer (final concentration 12.5 μM) were added. The plates were then incubated at room temperature for 60 min. Then, the reaction was stopped by adding 10 μL of E64 in assay buffer (final concentration 1 μM). The fluorescence in the wells was determined using a Molecular Devices SpectraMax M5 Fluorescence Reader (Ex 360 nm, Em 460 nm).
Each assay microtiter plate contains wells with vehicle controls (1% DMSO in bidest) as reference for non-inhibited enzyme activity (100% Ctl; high values) and wells with inhibitor (E64 in bidest+1% DMSO, final concentration 1 μM) as controls for background fluorescence (0% Ctl; low values). The analysis of the data was performed by calculating the percentage of fluorescence in the presence of test compound in comparison to the fluorescence of the vehicle control after subtracting the background fluorescence: (RFU(sample)−RFU(background))*100/(RFU(control)−RFU(background))
Data from these calculations were used to generate IC50 values for inhibition of Cathepsin K, respectively.

[2] = Metabolic stability with human liver microsomes; assay type: in vitro ADME; details: pH 7.6; pooled human liver microsomes, 37° C., 1 μM test compound, 1 mg/ml protein, NADPH; read-out: In vitro stability in human liver microsome incubations t½
Description: Determination of Metabolic Stability with Human Liver Microsomes
The metabolic degradation of the test compound is assayed at 37° C. with pooled human liver microsomes. The final incubation volume of 100 μl per time point contains TRIS buffer pH 7.6 (0.1 M), magnesium chloride (5 mM), microsomal protein (1 mg/ml) and the test compound at a final concentration of 1 μM. Following a short preincubation period at 37° C., the reactions are initiated by addition of beta-nicotinamide adenine dinucleotide phosphate, reduced form (NADPH, 1 mM) and terminated by transferring an aliquot into acetonitrile after different time points. Additionally, the NADPH-independent degradation is monitored in incubations without NADPH, terminated at the last time point. The [%] remaining test compound after NADPH independent incubation is reflected by the parameter c(control) (metabolic stability). The quenched incubations are pelleted by centrifugation (10,000 g, 5 min). An aliquot of the supernatant is assayed by LC-MS/MS for the amount of parent compound.
The half-life (t½ INVITRO) is determined by the slope of the semilogarithmic plot of the concentration-time profile. The intrinsic clearance (CL_[…]) is calculated by considering the amount of protein in the incubation: CL_[…][μl/min/mg protein]=(ln 2/(half-life[min]*protein content[mg/ml]))*1,000.

recombinant human Cathepsin K, sequence (P43235 115-329): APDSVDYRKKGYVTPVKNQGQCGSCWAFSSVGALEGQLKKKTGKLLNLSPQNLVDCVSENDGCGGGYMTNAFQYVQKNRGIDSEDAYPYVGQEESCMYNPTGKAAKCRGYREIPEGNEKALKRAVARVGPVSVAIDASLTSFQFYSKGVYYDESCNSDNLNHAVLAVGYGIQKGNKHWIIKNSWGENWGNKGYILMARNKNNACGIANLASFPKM

Compound | IC50 [1] | half-life at 1 μM [2]
CS(=O)(=O)c1ccc(-c2ccc(C[C@@H](C#N)NC(=O)C34CCC(CC3)CN4)c(F)c2)cc1 [Example 21, N-[(1S)-1-cyano-2-[2-fluoro-4-(4-methanesulfonylphenyl)phenyl]ethyl]-2-azabicyclo[2.2.2]octane-1-carboxamide] | 0.8 µM | > 2.17 h
CN1Cc2cc(-c3ccc(C[C@@H](C#N)NC(=O)C45CCC(CC4)CN5)cc3)ccc2C1=O [Example 4] | 6.3 µM | > 2.17 h
COCCN1C(=O)Cc2ccc(-c3ccc(C[C@@H](C#N)NC(=O)C45CCC(CC4)CN5)c(F)c3)cc21 [Example 26] | 1.1 µM | > 2.17 h
N#C[C@H](Cc1ccc(-c2ccc3c(c2)CCNC3=O)cc1F)NC(=O)C12CCC(CC1)CN2 [Example 22] | 2.3 µM | > 2.17 h
N#C[C@H](Cc1ccc(-c2ccc3c(c2)NC(=O)C3)cc1F)NC(=O)C12CCC(CC1)CN2 [Example 23] | 0.6 µM | > 2.17 h
N#C[C@H](Cc1ccc(-c2csc(C(N)=O)c2)cc1F)NC(=O)C12CCC(CC1)CN2 [Example 31] | 0.8 µM | > 2.17 h
CN1C(=O)Cc2ccc(-c3ccc(C[C@@H](C#N)NC(=O)C45CCC(CC4)CN5)c(F)c3)cc21 [Example 28] | 2.2 µM | > 2.17 h
CN1C(=O)Cc2ccc(-c3ccc(C[C@@H](C#N)NC(=O)C45CCC(CC4)CN5)cc3)cc21 [Example 2] | 6.7 µM | > 2.17 h
CC1(C)OC(=O)c2ccc(-c3ccc(C[C@@H](C#N)NC(=O)C45CCC(CC4)CN5)c(F)c3)cc21 [Example 27] | 1.7 µM | > 2.17 h
